The record followed here is patent publication US20230048678A1, “ICAN DERIVATIVES FOR ANTIFUNGAL USE” (DEBRECENI EGYETEM, priority 2019, published 2023).

Data set [1] concerns C. albicans isolate 3666. In words: Murine model, kidney fungal burden. Format: in vivo, BALB/c mice. Conditions: immunosuppressed mice, 10^4 cfu/mouse iv. On the procedure:
During an independent in vivo experiment mice were infected intravenously with C. albicans isolate 3666. The infected mice were euthanized 2 or 6 days after infection (n=5 and 6 mice/time point, respectively), as disclosed herein, to determine the fungal burdens in the kidneys. Kidney burden was analyzed using a Kruskal-Wallis test with Dunn's posttest for multiple comparisons [Foldi R 2012, Kovacs R 2014]. Results of fungal burden experiments are shown on FIGS. 3b and c. […] It is well seen in […], that on day 6. the fungal burden increased by an order of magnitude (from −10^5 to −10^6) in the case of the untreated mice, while in the case of DIMICAN it remained the same as it was on day 2. The same is valid for AMB.
We used 10-12 week-old female BALB/c mice for all experiments. Mice were immunosuppressed using 150 mg/kg intraperitoneal (ip) cyclophosphamide dose (4 days prior to infection) and 100 mg/kg ip cyclophosphamide dose (1 day prior to infection; 2 and 5 days after infection) [Spellberg B, 2005]. All mice received ceftazidime (5 mg/day subcutaneously) from days 0 to 6 after infection. Mice were given food and water ad libitum and were monitored daily. The animals were maintained in accordance with the Guidelines for the Care and Use of Laboratory Animals, and the experiments were approved by the Animal Care Committee of the University of Debrecen, Debrecen, Hungary (permission no. 12/2014).
Mice were infected via the lateral tail vein with C. albicans 3666 bloodstream isolate. In the lethality (10 mice/group) and fungal tissue burden experiments (6 mice/group) the infectious doses were 3×10^4 and 10^4 cfu/mouse, respectively. These doses led to 100% and 0% mortality, respectively by day 6 after infection among untreated mice. Inoculum density was confirmed by plating serial dilutions onto Sabouraud dextrose agar (SDA) plates.
AMB (Fungizone, commercial preparation) and DIMICAN treatment in a 0.5-ml bolus was started 1 h after infection. The doses were 1 mg AMB and 5 mg DIMICAN (in olive oil/water (o/w) emulsion) per kg body weight. All antifungals were administered intraperitoneally once daily for 5 consecutive days.
Infected mice were euthanized 2 or 6 days after infection (n=6 mice/time point) to determine the fungal burden in the kidney. […] Aliquots of 0.1 ml of the undiluted and diluted homogenates were plated onto SDA, and the colony count was determined after 48 h. Colony-forming units (CFUs) were determined after 48 h of incubation at 37° C. and results were expressed as cfus/g tissue [Spellberg B, 2005]. […]
(§1) Survival effects were analyzed by the Kaplan—Meier log-rank test. Kidney burden was analysed using a Kruskal—Wallis test with Dunn's posttest for multiple comparisons [Foldi R 2012, Kovacs R 2014].

The test system of data set [2] is clinical Candida isolates (C. albicans, C. krusei, C. tropicalis, C. glabrata, C. parapsilosis). In words: Broth microdilution, MIC summarised over all clinical Candida isolates. Format: cell-based. As to conditions: range or bound over all tested isolates of five Candida species. On the procedure:
The present inventors have discovered that 1-amino-5-isocyanonaphthalene (ICAN) and its derivatives exert excellent antifungal activity against a broad range of Candida species. […] Nevertheless, proper formulation and/or substitution with solubility enhancer groups on the naphthalene core may increase its effectiveness. Based on MIC values (MICPI=0.04−0.3 μg/ml MICTI=0.6 μg/ml) and its low cytotoxicity 1,1-N-dimethylamino-5-isocyanonaphthalene (DIMICAN) was selected to be tested on clinical Candida isolates. […] Amphotericin B (AMB) is an antifungal agent which is effective against a number of medically important fungi. The in vivo applicability of DIMICAN was tested on immunosuppressed mice and control experiments were also conducted with amphotericin B. In the model of acute invasive candidiasis, neutropenic mice were infected intravenously with C. albicans isolate 3666 (3×10^4 cfu/mouse) to establish an acute infection, and all untreated control animals died within 6 days. […]
The tested C. albicans, C. tropicalis, C. parapsilosis, C. glabrata and C. krusei ATCC strains and clinical isolates are listed in Table 2. MICs were determined according to the CLSI M27-A3 [22]. […] MICs were read visually after 48-h incubation at 35° C. using the partial (50%) inhibition (for ICAN derivatives) (PI) and total inhibition (for AMB and ICAN derivatives) (TI) criteria. MICs were determined at least twice. […]
Background: Broth dilution looks for growth in wells or tubes with falling amounts of substance.

The test system of another data set is human cell cultures. Put plainly: MTT bio assay cytotoxicity. Type of data set: cell-based. Conditions: MTT bio assay technique. In general terms: Tetrazolium dyes change colour on reduction, which living cells bring about.
The test system of data set [3] is C. albicans isolate 3666. Put plainly: Murine model of acute invasive candidiasis, survival. Format: in vivo, BALB/c mice. Conditions: neutropenic mice, 3×10^4 cfu/mouse iv, 5 mg/kg ip once daily for 5 days, olive oil/water emulsion; untreated controls 0%, P<0.05. On the procedure:
In the model of acute invasive candidiasis, neutropenic mice were infected via the lateral tail vein with C. albicans isolate 3666 (3×10^4 cfu/mouse) to establish an acute infection. It is well understood that any other fungal pathogens of animals can be used for this purpose. In the example provided herein all untreated control animals died within 6 days. DIMICAN (5 mg/kg) prolonged the survival period of animals compared to non-treated infected controls (P<0.05; 80 versus 0% survivors at day 7 post-infection; FIG. 3a). It should be noted, however, that DIMICAN was administered as intraperitoneal injection which contained DIMICAN as an emulsion in reagent grade olive oil and water. While emulsions are a kind of preferred options in the preparations of the invention, preparing alternative or improved formulations are within the skills of a person skilled in the art.
We used 10-12 week-old female BALB/c mice for all experiments. […] Mice were given food and water ad libitum and were monitored daily. […]
as §1

Molecules are shown by their SMILES. “Also recorded” adds a separate entry of the source.

As to `[C-]#[N+]c1cccc2c(N(C)C)cccc12` [DIMICAN, N,N-dimethyl-1-amino-5-isocyanonaphthalene], in the data set with C. albicans isolate 3666 [1] (5 mg/kg DIMICAN or 1 mg/kg AMB ip once daily for 5 days, p<0.05 (AMB), p<0.001 (DIMICAN) vs control), the “effect on kidney fungal burden, six days after infection” value was “efficient; also recorded: significantly lower fungal burden”. In the data set with C. albicans isolate 3666 [1] (5 mg/kg DIMICAN or 1 mg/kg AMB ip once daily, P>0.05 vs control), the “effect on kidney fungal burden, two days after infection” value is given as “no effect on fungal load”. The “total minimum inhibitory concentration (MICTI)” value in data set [2] is 0.08 to 1.25 µg/mL. In the data set on human cell cultures, this molecule returned an LD50 of 13 µg/mL. In the data set on C. albicans isolate 3666 [3], the “survivors at day 7 post infection” value worked out at 80%.
